Laboratory results: patent US20240099992A1, “COMPOSITIONS AND METHODS FOR TREATING CANCER” (priority 2021, published 2024)
Read-outs that look alike come from different tables or passages of the source.

Experiments:
Jurkat (T cell leukemia) = settings: 50 μM, 100 μM and 500 μM, 24 hours
Procedure: (§1) 50000 cells of each cell line were plated per well in a 24 well plate, treated with methylenediamine hydrochloride at different concentrations (0 as control, 50 μM, 100 μM and 500 μM) for 24 hours, then the living cells were counted. Jurkat: T cell leukemia, HL-60: acute leukemia cell; MV-411: B-myelomonocytic leukemia.

[1] = tested on: MV-411 (B-myelomonocytic leukemia); settings: 50 μM, 100 μM and 500 μM, 24 hours
Procedure: as §1

[2] = tested on: HL-60 (acute leukemia cell); settings: 50 μM, 100 μM and 500 μM, 24 hours
Procedure: as §1

[3] = tested on: H22, a mouse liver cancer cell line; settings: for Tumor suppression rate at day 9: versus normal saline group; for Tumor suppression rate at day 9 / suppression of tumor growth in the mouse liver cancer model (in words): dihydrochloride; for suppression of tumor growth in the mouse liver cancer model (in words): 120 and 240 mg/Kg daily through mouth, dose dependent
Procedure: H22, a mouse liver cancer cell line from ATCC, was cultured in 1640 medium with 10% […] at 37° C., 5% CO2. The cells were harvest 48 hours later and diluted to 1×10^6 cells/mL with the medium. Kunming mice, male, and body weight of 20 to 23 grams were used for the in vivo study. The animals were allowed free access to food and water throughout the study. All experimental protocols described here were approved by the Ethics Review Committee for Animal Experimentation. 0.2 mL of 1×10^6/ml cell suspension was inoculated into the abdominal cavity of the Kunming mice. The H22 ascites was transplanted 5 days later. The H22 cells in the ascites were harvested, diluted to a concentration of 1×10^7/mL with sterilized NS, then 0.2 mL was injected subcutaneously into the right armpit region of the mice. […] The animals were randomly divided into 3 groups with 7 mice in each and received the drug through mouth daily. Group 1: normal saline; Group 2: Methylenediamine Dihydrochloride low dose of 120 mg/Kg; Group 3: methylenediamine dihydrochloride high dose of 240 mg/Kg. Two perpendicular dimensions (length and width) of the subcutaneous transplantation tumors were measured in every mouse at day 3, day 6 and day 9 to calculate the tumor volume which was compared among groups (volume=½×length×width^2). […] The tumor suppression rate was calculated as: tumor volume in normal saline group minus tumor volume in methylenediamine dihydrochloride treated group, then divided by tumor volume of normal saline group.

[4] = tested on: cancer cell lines C8161, MUM2C, SKOV3, OVACA3, ScNAP, DU145, H1299, A549, MDA231, SNU499; settings: MTT, 24 hours
Procedure: The cancer cell lines were cultured in DMEM supplemented with 10% fetal bovine serum (FBS) and 100 U/mL penicillin-streptomycin in a humidified 37° C. incubator supplemented with 5% CO2. Cell proliferation was analyzed using MTT proliferation kit (Sigma). In brief, the cells were plated (5.0×10^3 cells per well) in 96-well plates and allowed to adhere overnight. The cells were then treated with methylenediamine dihydrochloride at various concentrations (0, 1 μM, 50 μM; 100 μM. 250 μM, 500 μM and 1 mM for 24 hours before the assay. After the incubation period, 10 μL of the MTT labeling reagent (final concentration 0.5 mg/mL) was added to each well. The microplate was incubated for 4 hours in a humidified atmosphere (37° C., 5% CO2). 100 μL of the Solubilization solution was added into each well. The plate was allowed to stand overnight in the incubator in a humidified atmosphere (37° C., 5% CO2). Complete solubilization of the purple formazan crystals was checked and the absorbance of the samples was measured using a microplate reader with wavelength of 570 nm.

methylenediamine dihydrochloride
suppression of living cells (Jurkat (T cell leukemia)): significant suppression | suppression of living cells [1]: significant suppression | suppression of living cells [2]: significant suppression | Average tumor volume, Day 3 ([3]; 120 mg/Kg daily through mouth): 0.43 cm^3 | Average tumor volume, Day 6 ([3]; 120 mg/Kg daily through mouth): 0.85 cm^3 | Average tumor volume, Day 9 ([3]; 120 mg/Kg daily through mouth): 1.21 cm^3 | Tumor suppression rate at day 9 ([3]; 120 mg/Kg daily through mouth): 30.5% | Tumor suppression rate at day 9 ([3]; 120 mg/Kg daily through mouth, listed as Methylenediamine dihydrochloride): 30.5% | Average tumor volume, Day 3 ([3]; 240 mg/Kg daily through mouth): 0.41 cm^3 | Average tumor volume, Day 6 ([3]; 240 mg/Kg daily through mouth): 0.78 cm^3 | Average tumor volume, Day 9 ([3]; 240 mg/Kg daily through mouth): 1.10 cm^3 | Tumor suppression rate at day 9 ([3]; 240 mg/Kg daily through mouth): 36.8% | Tumor suppression rate at day 9 ([3]; 240 mg/Kg daily through mouth, listed as Methylenediamine dihydrochloride): 36.8% | suppression of tumor growth in the mouse liver cancer model (in words) ([3]; listed as ethylenediamine dihydrochloride): effective in treating cancers | suppression of tumor growth in the mouse liver cancer model (in words) ([3]; listed as methylenediamine dihydrochloride): successfully suppressed tumor growth | suppression of cell proliferation (in words) ([4]; 0 μM to 1 mM): suppressed with a dose dependent pattern | concentration at which suppression of most cancer cells' growth started [4]: 50 µM | concentration above which proliferation was significantly suppressed ([4]; dose dependent pattern): above 100 μM
